Laboratory results: paper PMC6644994, “Chemical Ligand Space of Cereblon” (ACS Omega, 2018)
“Also recorded” adds a separate entry of the source. Like-named read-outs stand apart in the source and are kept apart here.

Legend:
MsCI4 [1] = target: MsCI4 (Magnetospirillum gryphiswaldense, UniProt A4TVL0, W36F/W59F); assay: biochemical; assay type: binding
MsCI4 [2] = target: T1, MsCI4 (Magnetospirillum gryphiswaldense, UniProt A4TVL0); assay: X-ray crystallography of MsCI4·ligand crystals obtained by soaking; assay type: binding; set-up: key to binding verified via crystallography (symbol in Table S1): X-tal: binding verified via crystallography; details: for binding verified via crystallography (in words): MsCI4·thalidomide crystals soaked with solid rolipram
T1 sequence (A4TVL0 1-124): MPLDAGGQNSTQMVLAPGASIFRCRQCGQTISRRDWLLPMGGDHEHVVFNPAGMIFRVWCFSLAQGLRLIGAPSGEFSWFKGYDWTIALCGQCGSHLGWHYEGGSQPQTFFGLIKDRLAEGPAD
Description: In a next step, we characterized the binding of representative compounds via X-ray crystallography. […] (II) The structures with ethosuximide, hydantoin, 2-thiohydantoin, and thiazolidine-2,4-dione verify that imides with 5-membered rings have the same basic binding mode as 6-membered rings. (III) The binding mode of γ-butyrolactam, δ-valerolactam and rolipram verifies that lactams have a binding mode analogous to imides, with their carbonyl group occupying position d. […] Importantly, in a direct comparison with the crystal structure of the human thalidomide-binding domain, none of the protruding moieties of the effectors is interacting or in contact with any nonconserved amino acid side chain, such that their binding modes are not influenced by species-specific differences (Figure S2).
After 40 h of soaking, these crystals were loop-mounted and flash-cooled in liquid nitrogen. Data were collected at 100 K and a wavelength of 1 Å on a PILATUS 6M-F detector at beamline X10SA of the Swiss Light Source (PSI, Villigen, Switzerland). Diffraction images were indexed, integrated, and scaled using XDS.[34] […] Data collection and refinement statistics are summarized together with PDB accession codes in Table S2. All molecular depictions were prepared using MolScript,[37] BobScript,[38] and Raster3D.[39]

[3] = tested on: zebrafish embryos (cereblon-mediated pectoral fin malformation); details: cited from earlier work
[4] = tested on: zebrafish embryos (cereblon-mediated pectoral fin malformation); assay: Zebrafish pectoral fin deformity assay
[5] = Table S1, affinity for MsCI4, FRET assay, read-out: Ki
[6] = zebrafish embryos, 400 μM, 75 h post fertilization

Chain of MsCI4 (Magnetospirillum gryphiswaldense, UniProt A4TVL0, W36F/W59F) (A4TVL0 entry or part of it W36F/W59F): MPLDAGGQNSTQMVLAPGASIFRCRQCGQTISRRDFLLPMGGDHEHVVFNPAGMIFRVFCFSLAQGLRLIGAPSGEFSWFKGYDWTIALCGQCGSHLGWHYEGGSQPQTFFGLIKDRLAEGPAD

`CC1CCC(=O)N1` (stereo not drawn) [5-Methylpyrrolidin-2-one] gave a Ki (MsCI4 [1]) of 19 ± 6 µM.
Work on `O=C1CSC(=O)N1` [Thiazolidine-2,4-dione] yielded a Ki (MsCI4 [1]) of 137 ± 15.9 µM.
In the case of `Cc1c[nH]c(=O)[nH]c1=O` [Thymine, 5-Methylpyrimidine-2,4-dione], the Ki (MsCI4 [1]) is reported as 478 ± 41.6 µM and the “binding to MsCI4 in the FRET assay (in words)” value (from here on “binding to MsCI4”) (MsCI4 [1]; FRET assay) is reported as “very low but measurable affinities”.
In the case of `CC1(C)OC(=O)NC1=O` [5,5-Dimethyl-oxazolidine-2,4-dione], the Ki (MsCI4 [1]) is reported as over 1000 µM and the “binding to MsCI4” value (MsCI4 [1]; FRET assay) is reported as “no detectable binding”.
For `COc1ccc(C2CNC(=O)C2)cc1OC1CCCC1` (stereo not drawn) [Rolipram], the “binding verified via crystallography (in words)” value (MsCI4 [2]) was “binding was confirmed via crystallography”, the “binding verified via crystallography (in words)” value (MsCI4 [2]; listed as rolipram) was “could verify its binding via crystallography; also recorded: verified by crystallography” and the “binding verified via crystallography (symbol in Table S1)” value (MsCI4 [2]; Table S1) was “X-tal”.
`CN1CC(=O)NC1=N` [Creatinine, 2-Imino-N-methylhydantoin] gave a Ki (MsCI4 [1]) of over 1000 µM.
With `CC(=O)NC(N)=O` [N-Acetylurea] the “binding to MsCI4” value (MsCI4 [1]; FRET assay) was “detectable” and the Ki (MsCI4 [1]; printed in figures and text, FRET assay, read-out: Experimental Ki values for MsCI4) was 522 µM.
With `O=C1CCCO1` [γ-Butyrolactone] the Ki (MsCI4 [1]) was over 1000 µM.
`O=c1cc[nH]c(=O)[nH]1` [Uracil, Pyrimidine-2,4-dione] gave a Ki (MsCI4 [1]) of 35 ± 5.1 µM.
With `CC(=O)NCCN` [N-(2-Aminoethyl)acetamide] the Ki (MsCI4 [1]) was over 1000 µM and the “binding to MsCI4” value (MsCI4 [1]; FRET assay) was “could not detect any binding”.
In the case of `O=C1CCC(N2C(=O)c3ccccc3C2=O)C(=O)N1` (stereo not drawn) [Thalidomide], the “pectoral fin development in zebrafish embryos” value ([3]; zebrafish embryos) is given as “stunted pectoral fins” and the pectoral fin phenotype ([4]; zebrafish, 200 μM) is given as “not clearly identifiable”.
Compound `CN1CC(=O)NC1=O` [N-Methylhydantoin] has a Ki (MsCI4 [1]) of 16 ± 1.3 µM.
Work on `CCC1(C)CC(=O)NC1=O` (stereo not drawn) [Ethosuximide, 3-Ethyl-3-methylsuccinimide] yielded a Ki (MsCI4 [1]) of 136 ± 11.6 µM.
In the case of Pyrrol-2,5-dione [Maleimide], the Ki (MsCI4 [1]; [5]) is reported as 35 ± 3.1 µM.
With `CCC1(c2ccc(N)cc2)CCC(=O)NC1=O` (stereo not drawn) [Aminoglutethimide] the Ki (MsCI4 [1]) was 39 ± 3.8 µM.
Compound `Nc1cc[nH]c(=O)n1` [Cytosine] has a Ki (MsCI4 [1]) of over 1000 µM.
With `CC(N)=O` [Acetamide] the “binding to MsCI4” value (MsCI4 [1]; FRET assay) was “could not detect any binding” and the Ki (MsCI4 [1]; [5]) was over 1000 µM.
For `O=C1CCNC(=O)N1` [Dihydrouracil, Hexahydropyrimidine-2,4-dione], the Ki (MsCI4 [1]) was 88 ± 6.8 µM.
In the case of `O=C1CCC(=O)O1` [Succinic Anhydride], the Ki (MsCI4 [1]) is reported as over 1000 µM.
`O=C1CCCCN1` [δ-Valerolactam, Piperidin-2-one] gave a Ki (MsCI4 [1]) of 146 ± 20.3 µM.
In the case of `O=C1CCCC(=O)N1` [Glutarimide, Piperidine-2,6-dione], the “effect on pectoral fin deformity of injecting zcrbnYW/AA mRNA (thalidomide-insensitive cereblon mutant)” value [4, 6] is reported as “alleviated” and the “pectoral fin deformity / teratogenic effect” value [4, 6] is reported as “strongest effect; also recorded: cause developmental defects”.
For `O=c1[nH]cc([C@@H]2O[C@H](CO)[C@@H](O)[C@H]2O)c(=O)[nH]1` [Pseudouridine], the Ki (MsCI4 [1]) was over 1000 µM and the “binding to MsCI4” value (MsCI4 [1]; FRET assay) was “not detectable; also recorded: no detectable binding”.
Compound `O=c1ccn([C@H]2C[C@H](O)[C@@H](CO)O2)c(=O)[nH]1` [Deoxyuridine] has a Ki (MsCI4 [1]) of 15 ± 1.6 µM.
In the case of `CCC1(C)NC(=O)NC1=O` (stereo not drawn) [5-Ethyl-5-methyl-hydantoin], the Ki (MsCI4 [1]) is reported as over 1000 µM and the “binding to MsCI4” value (MsCI4 [1]; FRET assay) is reported as “no binding was detectable”.
`O=C1CCN1` [Azetidin-2-one] gave a Ki (MsCI4 [1]; [5]) of 77 ± 11 µM.
In the case of `NC(=O)NC(=O)Cc1ccccc1` [Phenylacetylurea], the “binding to MsCI4” value (MsCI4 [1]; FRET assay) is reported as “did not bind” and the Ki (MsCI4 [1]; [5]) is reported as over 1000 µM.
`O=C1CNC(=S)N1` [2-Thiohydantoin] showed a Ki (MsCI4 [1]) of 13 ± 1.3 µM.
With `O=C1CCCC(=O)O1` [Glutaric Anhydride] the Ki (MsCI4 [1]) was over 1000 µM.
In the case of `O=C1CNC(=O)N1` [Hydantoin, Imidazolidine-2,4-dione], the Ki (MsCI4 [1]) is reported as 43 ± 10.7 µM.
With `O=C1CC(=O)NC(=O)N1` [Barbiturate] the “pectoral fin deformity / teratogenic effect” value [4, 6] was “no effect; also recorded: does not cause any effects”, the Ki (MsCI4 [1]) was over 1000 µM and the “binding to MsCI4” value (MsCI4 [1]; FRET assay) was “abolished binding”.
With `C[C@@H]1C[C@@H]([C@H](O)CC2CC(=O)NC(=O)C2)C(=O)[C@@H](C)C1` [Cycloheximide] the Ki (MsCI4 [1]) was over 1000 µM and the “binding to MsCI4” value (MsCI4 [1]; FRET assay) was “abolished binding”.
In the case of `Cc1cn([C@H]2C[C@H](O)[C@@H](CO)O2)c(=O)[nH]c1=O` [Thymidine], the Ki (MsCI4 [1]) is reported as 204 ± 34.5 µM and the “binding to MsCI4” value (MsCI4 [1]; FRET assay) is reported as “very low but measurable affinities”.
Compound `O=C1CCCN1` [γ-Butyrolactam, Pyrrolidin-2-one] has a Ki (MsCI4 [1]) of 57 ± 11.6 µM.
Compound `S=C1CCCN1` [Pyrrolidine-2-thione] has a Ki (MsCI4 [1]) of over 1000 µM.
Work on `O=C1CCC(=O)N1` [Succinimide, Pyrrolidine-2,5-dione] yielded a Ki (MsCI4 [1]) of 4.3 ± 0.5 µM.
Work on `O=C1CCCCCCN1` [1-Azo-2-Cyclooctanone] yielded a Ki (MsCI4 [1]; [5]) of over 1000 µM.
Work on `COc1ccc(C2CNC(=O)C2)cc1OCCCN1CCC(C(=O)c2ccc(F)cc2)CC1` (stereo not drawn) [Lidanserin] yielded a Ki (MsCI4 [1]) of 25 ± 8.5 µM.
Work on `C1CCNC1` [Pyrrolidine] yielded a Ki (MsCI4 [1]; [5]) of over 1000 µM.
In the case of N-(2-Hydroxypropyl)acetamide, the “binding to MsCI4” value (MsCI4 [1]; FRET assay) is reported as “could not detect any binding” and the Ki (MsCI4 [1]; [5]) is reported as over 1000 µM.
With `C1CCNCC1` [Piperidine] the Ki (MsCI4 [1]) was over 1000 µM.
In the case of `O=c1ccn([C@@H]2O[C@H](CO)[C@@H](O)[C@H]2O)c(=O)[nH]1` [Uridine], the “teratogenic effect on fin formation in zebrafish” value ([3]; zebrafish) is listed as “same effect on fin formation” and the Ki (MsCI4 [1]) is listed as 13 ± 1.9 µM.
In the case of `O=C1CCCCCN1` [ε-Caprolactam], the Ki (MsCI4 [1]) is reported as over 1000 µM and the “binding to MsCI4” value (MsCI4 [1]; FRET assay) is reported as “no detectable binding”.
With `CC(=O)NCCCCC(N)C(=O)O` (stereo not drawn) [N-ε-Acetyllysine, 2-azaniumyl-6-acetamidohexanoate] the Ki (MsCI4 [1]) was over 1000 µM and the “binding to MsCI4” value (MsCI4 [1]; FRET assay) was “could not detect any binding”.
